In data set [1] the target is T1, Progesterone receptor (Homo sapiens) (UniProt P06401).
T1 sequence (whole entry): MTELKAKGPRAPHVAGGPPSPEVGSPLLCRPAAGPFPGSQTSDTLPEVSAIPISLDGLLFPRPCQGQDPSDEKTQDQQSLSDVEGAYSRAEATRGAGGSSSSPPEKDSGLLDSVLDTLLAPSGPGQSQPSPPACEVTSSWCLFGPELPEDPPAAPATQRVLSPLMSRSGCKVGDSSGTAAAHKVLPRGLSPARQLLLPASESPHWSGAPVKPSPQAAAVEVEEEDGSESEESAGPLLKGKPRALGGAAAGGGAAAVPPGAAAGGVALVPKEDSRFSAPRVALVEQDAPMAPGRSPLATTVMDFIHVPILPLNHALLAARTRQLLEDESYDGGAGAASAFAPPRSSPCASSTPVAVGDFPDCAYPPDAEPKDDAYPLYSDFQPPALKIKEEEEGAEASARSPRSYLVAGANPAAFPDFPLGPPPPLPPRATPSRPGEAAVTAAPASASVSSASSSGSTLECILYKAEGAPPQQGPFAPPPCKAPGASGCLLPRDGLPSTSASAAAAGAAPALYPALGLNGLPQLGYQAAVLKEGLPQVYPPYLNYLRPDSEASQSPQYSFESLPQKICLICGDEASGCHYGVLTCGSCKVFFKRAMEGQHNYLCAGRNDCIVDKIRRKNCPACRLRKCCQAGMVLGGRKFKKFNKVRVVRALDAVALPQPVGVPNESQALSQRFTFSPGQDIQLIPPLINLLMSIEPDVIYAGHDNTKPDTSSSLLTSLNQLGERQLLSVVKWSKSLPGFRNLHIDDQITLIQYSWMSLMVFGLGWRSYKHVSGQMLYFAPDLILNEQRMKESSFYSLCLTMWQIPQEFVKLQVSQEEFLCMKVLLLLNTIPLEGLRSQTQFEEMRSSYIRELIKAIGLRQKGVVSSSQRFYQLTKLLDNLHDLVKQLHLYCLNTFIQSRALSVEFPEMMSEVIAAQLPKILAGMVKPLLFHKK
Description: Agonist activity at human PR expressed in human HepG2 cells assessed as MMTV gene promoter transactivation at 10 uM by measuring relative luciferase activity by transient transfection reporter assay relative to control. In kind it is functional, cell-based.

Data set [2] concerns the target T2, Bile acid receptor (Homo sapiens) (UniProt Q96RI1).
T2 sequence (whole entry): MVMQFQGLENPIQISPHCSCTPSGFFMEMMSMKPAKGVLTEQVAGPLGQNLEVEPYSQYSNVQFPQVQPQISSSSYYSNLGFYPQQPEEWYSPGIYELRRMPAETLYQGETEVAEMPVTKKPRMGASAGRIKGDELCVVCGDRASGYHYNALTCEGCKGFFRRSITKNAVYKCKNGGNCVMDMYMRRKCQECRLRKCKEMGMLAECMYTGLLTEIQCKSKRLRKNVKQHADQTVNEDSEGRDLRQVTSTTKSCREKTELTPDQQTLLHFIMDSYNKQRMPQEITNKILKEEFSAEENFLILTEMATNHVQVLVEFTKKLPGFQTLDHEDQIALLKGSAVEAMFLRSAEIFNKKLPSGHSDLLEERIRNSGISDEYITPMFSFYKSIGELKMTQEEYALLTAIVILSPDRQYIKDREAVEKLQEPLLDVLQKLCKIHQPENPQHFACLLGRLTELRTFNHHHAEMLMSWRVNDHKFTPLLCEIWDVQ
Description: Antagonist activity at human FXR expressed in human HepG2 cells assessed as inhibition of CDCA-induced transactivation of SHP gene at 100 uM by measuring relative luciferase activity by transient transfection reporter assay relative to control. The data set is classed as functional, cell-based. (Reporter assays use an easily measured gene product as a stand-in for the process of interest.)

Data set [3] addresses T2, Bile acid receptor (Homo sapiens). Description: Antagonist activity at human FXR expressed in human HepG2 cells assessed as inhibition of CDCA-induced transactivation of SHP gene at 50 uM by measuring relative luciferase activity by transient transfection reporter assay relative to control. In kind it is functional, cell-based.
Data set [4] has the same target. Description: Antagonist activity at human FXR expressed in human HepG2 cells assessed as inhibition of CDCA-induced transactivation of SHP gene by measuring relative luciferase activity by transient transfection reporter assay relative to control. In kind it is functional, cell-based.
Data set [5] has the same target. Description: Antagonist activity at human FXR expressed in human HepG2 cells assessed as inhibition of CDCA-induced transactivation of SHP gene at 10 uM by measuring relative luciferase activity by transient transfection reporter assay relative to control. The data set is classed as functional, cell-based.
For data set [6] the target is unchanged. Description: Antagonist activity at human FXR expressed in human HepG2 cells assessed as upregulation of CYP7A1 gene transactivation at 10 uM by measuring relative luciferase activity by transient transfection reporter assay relative to control. The data set is classed as functional, cell-based.
Data set [7] concerns the target T1, Progesterone receptor (Homo sapiens). Description: Agonist activity at human PR expressed in human HepG2 cells assessed as MMTV gene promoter transactivation at 100 uM by measuring relative luciferase activity by transient transfection reporter assay relative to control. The data set is classed as functional, cell-based.
For data set [8], the target named is T2, Bile acid receptor (Homo sapiens). Description: Agonist activity at human FXR expressed in human HepG2 cells assessed as transactivation of SHP gene at 400 uM by measuring relative luciferase activity by transient transfection reporter assay. The data set is classed as functional, cell-based.
Data set [9] has the same target. Description: Antagonist activity at human FXR expressed in human HepG2 cells assessed as upregulation of CYP7A1 gene transactivation at 100 uM by measuring relative luciferase activity by transient transfection reporter assay relative to control. The data set is classed as functional, cell-based.
Data set [10] concerns the target Cellular tumor antigen p53 (Homo sapiens) (UniProt P04637). Description: Transactivation of p53 in human HepG2 cells expressing MDM2 promoter by transient transfection reporter assay. The data set is classed as cell-based.
The test system of another data set is HepG2. Description: Cytotoxicity against human HepG2 cells. In kind it is cell-based.

The structures appear in SMILES notation. The source made the active and inactive calls. The calls are words filed in the database; no cut-off is given here.

The record followed here is ChEMBL document CHEMBL2203190, “Sesquiterpenoids from Atractylodes macrocephala act as farnesoid X receptor and progesterone receptor modulators” (Bioorg Med Chem Lett, 2012).

Chain of Cellular tumor antigen p53 (Homo sapiens) (P04637 whole entry, looked up): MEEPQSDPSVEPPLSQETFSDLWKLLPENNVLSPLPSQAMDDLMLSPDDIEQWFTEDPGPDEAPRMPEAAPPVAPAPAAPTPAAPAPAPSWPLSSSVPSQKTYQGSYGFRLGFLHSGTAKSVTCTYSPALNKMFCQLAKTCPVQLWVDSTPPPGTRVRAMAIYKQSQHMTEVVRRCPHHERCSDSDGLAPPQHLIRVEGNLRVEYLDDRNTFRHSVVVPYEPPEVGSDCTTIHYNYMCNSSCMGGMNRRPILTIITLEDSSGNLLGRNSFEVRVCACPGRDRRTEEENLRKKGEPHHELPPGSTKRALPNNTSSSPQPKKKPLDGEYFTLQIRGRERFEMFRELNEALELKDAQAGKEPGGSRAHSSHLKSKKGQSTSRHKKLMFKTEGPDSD

On to `CC(=O)[C@H]1CC[C@H]2[C@@H]3CCC4=CC(=O)CC[C@]4(C)[C@H]3CC[C@]12C`, for which the RLU in data set [1] turned out to be 2.38.

As a reminder, the inhibition is the drop in the measured response relative to a control, in per cent. With `C=C1CCC[C@]2(C)C[C@@H]3OC(=O)C(C)=C3C[C@@H]12`, the results for the RLU in [2] and in data set [5] were 0.9 and 1.5, respectively. Also, the inhibition in data set [3] was 50%; in data set [4], “Dose-dependent effect”. For the same compound, the values for the fold change (FC) in data set [6] and in [9] were 1.5 and 2, respectively. The result in [7] and in [8] was inactive.

In the case of `C=C1CCC[C@]2(C)C=C3OC(=O)C(C)=C3C[C@@H]12` [ATRACTYLENOLIDE I], the outcome in data set [10] was Active. In addition, the Activity entry in the data set on HepG2 is “Toxic”.

With `C=C1CCC[C@]2(C)C[C@]3(O)OC(=O)C(C)=C3C[C@@H]12`, the RLU worked out at 0.85 in data set [2], 1.7 in [5], 3.39 in [7] and 1.57 in [1]. In addition, the results for the inhibition in data set [3] and in data set [4] were 50% and “Dose-dependent effect”, respectively. The fold change (FC) in data set [6] amounted to 1.5. Also, the result in data set [8] was inactive.
